According to patent US20130156845A1, “LIPID FORMULATED SINGLE STRANDED RNA” (ALNYLAM PHARMACEUTICALS, INC., priority 2010, published 2013):
Read-outs that look alike come from different tables or passages of the source. Strand notation (5' to 3'): a small letter for the sugar, then the base; units joined by * are phosphorothioate-linked, units joined directly phosphodiester-linked; [ ] holds rarer units or linkages, { } end groups; capitals alone tell only the bases. [FEt-N] = nucleoside with 2'-OCH2CH2F (FEt) sugar (N: the base); [tcDNA-N] = tricyclo-DNA nucleoside (N: the base); [FEt] = thymidine with 2'-OCH2CH2F (FEt) sugar; e = 2'-O-(2-methoxyethyl) (MOE); m = 2'-O-methyl; r = 2'-OH (RNA); {P} = phosphate; f = 2'-fluoro

Tests used:
[1] = Phosphate stability in mouse serum (Example 68)
Protocol: Single-stranded oligomeric compounds were tested for stability in mouse serum.

PTEN = PTEN mRNA reduction in HeLa cells, dose response (Example 72); assay type: cell-based, human; conditions: percent inhibition of PTEN mRNA, 0.167-50 nM
Protocol: In accordance with the present disclosure, oligomeric compounds were synthesized and tested for their ability to reduce PTEN expression over a range of doses. Human HeLa cells were treated with the following oligomeric compounds. A dose comparison was evaluated with dose concentrations of 0.167, 0.5, 1.5, 5, 15 and 50 nM using methods described herein. Expression levels of PTEN were determined using real-time PCR and normalized to RIBOGREEN™ using methods described herein. The percent inhibition of PTEN mRNA was determined and the resulting dose-response curves were used to determine the IC50. The IC50s are listed below.

human PTEN = assay: PTEN expression in HeLa cells, ssRNAs vs siRNAs (Example 62); assay type: cell-based
Protocol: A series of 5′ and 2′ bis-substituted modified oligomeric compounds were prepared as single strand RNAs (ssRNAs). The antisense (AS) strands listed below were designed to target human PTEN, and each was also assayed as part of a duplex with the same sense strand (ISIS 341401, shown below) for their ability to reduce PTEN expression levels. HeLa cells were treated with the single stranded or double stranded oligomeric compounds created with the antisense compounds shown below using methods described herein. The IC50's were calculated using the linear regression equation generated by plotting the normalized mRNA levels to the log of the concentrations used.

[2] = full compound with intact phosphorous moiety, first table
[3] = antisense strand duplexed with sense strand ISIS 341401, PTEN mRNA, read-out: EC50 (nM) siRNA

With “5′-Po-ThUfoGfoUfoCfoUfoCfoUfoGfoGfoUfoCfoCfoUfsUfsAfsCfsUfsUfsAesAe (antisense TUGUCUCUGGUCCUUACUUAA; 5'-phosphate, 2'-F, MOE modifications, chemistry not fully specified) [ISIS 440141]” as the substance, how does the T1/2 full length ([1]; four compounds tested separately, second table) read?
The T1/2 full length was 0.3 h.

With “5′-Po-TjUfoGfoUfoCfoUfoCfoUfoGfoGfoUfoCfoCfoUfsUfsAfsCfsUfsUfsAesAe (antisense {P}-[tcDNA-T]fUfGfUfCfUfCfUfGfGfUfCfCfU*fU*fA*fC*fU*fU*eA*eA) [ISIS 418130]” as the substance, how does the T1/2 full length [1, 2] read?
Its T1/2 full length is 5.3 h.

For “5′-Po-UiUfoGfoUfoCfoUfoCfoUfoGfoGfoUfoCfoCfoUfsUfsAfsCfsUfsUfsAesAe (antisense UUGUCUCUGGUCCUUACUUAA; 5'-phosphate, N-methoxyamino BNA, 2'-F, MOE modifications, chemistry not fully specified) [ISIS 418129]”, which T1/2 full length [1, 2] is on record?
The T1/2 full length was 5.4 h.

Which T1/2 full length [1, 2] does the source give for “5′-Ps-UdUfoGfoUfoCfoUfoCfoUfoGfoGfoUfoCfoCfoUfsUfsAfsCfsUfsUf (antisense UUGUCUCUGGUCCUUACUU; 5'-thiophosphate, 2'-F modifications, chemistry not fully specified) [ISIS 430601]” here?
Its T1/2 full length is 3.7 h.

With “P-TUfGfUfCfUfCfUfGfGfUfCfCfUfUfAfCfUfUfAeAe (antisense TUGUCUCUGGUCCUUACUUAA; 5'-phosphate, chemical modifications, chemistry not fully specified) [ISIS 418131, modified ssRNA targeting PTEN]” as the substance, how does the IC50 (PTEN) read?
Its IC50 is 3.4 nM.

For “P-TdUfGfUfCfUfCfUfGfGfUfCfCfUfUfAfCfUfUfAeAe (antisense TUGUCUCUGGUCCUUACUUAA; chemistry not fully specified) [ISIS 435394, modified ssRNA targeting PTEN]”, which IC50 (PTEN) is on record?
The IC50 was 18.1 nM.

Which IC50 (PTEN) does the source give for “P-TdUfGmUfCmUfCmUfGmGfUmCfCfUfUfAfCfUfUfAeAe (antisense TUGUCUCUGGUCCUUACUUAA; 5'-phosphate, chemical modifications, chemistry not fully specified) [ISIS 435399, modified ssRNA targeting PTEN]” here?
Its IC50 is 2 nM.

With “P-TeUfGfUfCfUfCfUfGfGfUfCfCfUfUfAfCfUfUfAeAe (antisense TUGUCUCUGGUCCUUACUUAA; sugars from the 5' end e1 f18 e2, 5' {P}, backbone not given here) [ISIS 418031, modified ssRNA targeting PTEN]” as the substance, how does the IC50 (PTEN) read?
Its IC50 is 3.9 nM.

For “P-TefUfGfUfCfUfCfUfGfGfUfCfCfUfUfAfCfUfUfAeAe (antisense TUGUCUCUGGUCCUUACUUAA; sugars from the 5' end [FEt]1 f18 e2, 5' {P}, backbone not given here; further chemistry not fully specified) [ISIS 418032, modified ssRNA targeting PTEN]”, which IC50 (PTEN) is on record?
Its IC50 is 2.9 nM.

With “P-TefUfGfUfCfUfCfUfGfGfUfCfCfUfUfAfCfUfUfAeAe (antisense {P}-[FEt-T]fUfGfUfCfUfCfUfGfGfUfCfCfU*fU*fA*fC*fU*fU*eA*eA) [ISIS 418033, modified ssRNA targeting PTEN]” as the substance, how does the IC50 (PTEN) read?
Its IC50 is 11 nM.

For “P-UeUfGfUfCfUfCfUfGfGfUfCfCfUfUfAfCfUfUfAeAe (antisense UUGUCUCUGGUCCUUACUUAA; sugars from the 5' end e1 f18 e2, 5' {P}, backbone and T or U not given here) [ISIS 418030, modified ssRNA targeting PTEN]”, which IC50 (PTEN) is on record?
Its IC50 is 8.5 nM.

With “P-UfUfGfUfCfUfCfUfGfGfUfCfCfUfUfAfCfUfUf (antisense {P}-fUfUfGfUfCfUfCfUfGfGfUfC*fC*fU*fU*fA*fC*fU*fU) [ISIS 386187, modified ssRNA targeting PTEN]” as the substance, how does the EC50 (human PTEN; [3]) read?
The EC50 was 0.3 nM.

What about the EC50 (human PTEN; single stranded antisense compound, PTEN mRNA, read-out: EC50 (nM) ssRNA) of the same substance?
Its EC50 is 15 nM.

For “P-UmUfGmUfCmUfCmUfGmGfUmCfCmUfUmAfCmUfUmAeAe (antisense UUGUCUCUGGUCCUUACUUAA; sugars from the 5' end mfmfmfmfmfmfmfmfmfmee, 5' {P}, backbone not given here) [ISIS 414291, modified ssRNA targeting PTEN]”, which IC50 (PTEN; listed as 414291) is on record?
Its IC50 is 13 nM.

With “P-UmUfGmUfCmUfCmUfGmGfUmCfCmUfUmAfCmUfUmAeAe (antisense UUGUCUCUGGUCCUUACUUAA; sugars from the 5' end mfmfmfmfmfmfmfmfmfmee, 5' {P}, backbone not given here) [ISIS 416598, modified ssRNA targeting PTEN]” as the substance, how does the IC50 (PTEN; listed as 416598) read?
Its IC50 is 6.8 nM.

With “Pz-^meUhUfGmUfCmUfCmUfGmGfUmCfCmUfUmAfCmUfUmAeAe (antisense UUGUCUCUGGUCCUUACUUAA; 5'-difluoromethylenephosphonate, 2'-F/2'-OMe alternating, MOE 3' end, first nucleoside modification undefined, further chemistry not given here) [ISIS 460646, modified ssRNA targeting PTEN, 5′-difluoromethylenephosphonate]” as the substance, how does the EC50 (human PTEN; [3]) read?
Its EC50 is 0.8 nM.

Which EC50 (human PTEN; antisense strand duplexed with sense strand ISIS 341401, PTEN mRNA, listed as 462606 (AS), read-out: EC50 (nM) siRNA) does the source give for “Pz-^meUmUfGmUfCmUfCmUfGmGfUmCfCmUfUmAfCmUfUmAeAe (antisense UUGUCUCUGGUCCUUACUUAA; 5'-difluoromethylenephosphonate, 2'-F/2'-OMe alternating, MOE 3' end, first nucleoside modification undefined, further chemistry not given here) [ISIS 462606, modified ssRNA targeting PTEN, 5′-difluoromethylenephosphonate]” here?
Its EC50 is 0.4 nM.

For “Pz-^meUmUfGmUfCmUfCmUfGmGfUmCfCmUfUmAfCmUfUmAeAe (antisense UUGUCUCUGGUCCUUACUUAA; 5'-difluoromethylenephosphonate, 2'-F/2'-OMe alternating, MOE 3' end, first nucleoside modification undefined, further chemistry not given here) [ISIS 462607, modified ssRNA targeting PTEN, 5′-difluoromethylenephosphonate]”, which EC50 (human PTEN; antisense strand duplexed with sense strand ISIS 341401, PTEN mRNA, listed as 462607 (AS), read-out: EC50 (nM) siRNA) is on record?
The EC50 was 1 nM.

For “UUGUCUCUGGUCCUUACUU (rUrUrGrUrCrUrCrUrGrGrUrC*rC*rU*rU*rA*rC*rU*rU) [ISIS 359455, unmodified RNA antisense strand targeting PTEN]”, which EC50 (human PTEN; [3]) is on record?
Its EC50 is 0.3 nM.
